We go through seven compounds from patent publication US6645973B1, “Spiro(2h-1-benzopyran-2,4-piperidine)derivatives as glycine transport inhibitors” (Akzo Nobel, priority 1999, dated 2003).

Structures can show the parent of a compound that is named as a salt.

What is called melting point is the temperature, or range, at which the solid turns liquid.

For the compound `CN(C)c1ccc(C2=CC3(CCN(CC(=O)O)CC3)Oc3ccccc32)cc1` (as salt: hydrochloride) [Example 24, 1′-Carboxymethyl-4-[4-(N,N-dimethylamino)phenyl]spiro[2H-1-benzopyran-2,4′-piperidine]hydrochloride], the melting point is 238 to 250 °C. With `CN(C)c1ccc(C2=CC3(CCN(CC(=O)O)CC3)Oc3ccccc32)cc1F` (as salt: hydrochloride) [Example 37, 1′-Carboxymethyl-4-(4-dimethylamino-3-fluorophenyl)spiro[2H-1-benzopyran-2,4′-piperidine]hydrochloride] the figure was 231 to 239 °C. With `CN(C)c1c(F)cc(C2=CC3(CCN(CC(=O)O)CC3)Oc3ccccc32)cc1F` (as salt: hydrochloride) [Example 38, 1′-Carboxymethyl-4-(3,5-difluoro-4-dimethylaminophenyl)spiro[2H-1-benzopyran-2,4′-piperidine]hydrochloride] the figure was 231 to 242 °C. With `C=CCOc1c(F)cc(C2=CC3(CCN(CC(=O)O)CC3)Oc3ccccc32)cc1F` (as salt: hydrochloride) [Example 55, 4-(4-Allyloxy-3,5-difluorophenyl)-1′-carboxymethylspiro[2H-1-benzopyran-2,4′-piperidine]hydrochloride] the figure was 221 to 225 °C; with `C#CCOc1c(F)cc(C2=CC3(CCN(CC(=O)O)CC3)Oc3ccccc32)cc1F` (as salt: hydrochloride) [Example 57, 1′-Carboxymethyl-4-(3,5-difluoro-4-propargyloxyphenyl)spiro[2H-1-benzopyran-2,4′-piperidine]hydrochloride], 211 to 217 °C. The compound `O=C(O)CN1CCC2(C=C(c3cc(F)c(OCC(F)(F)F)c(F)c3)c3ccccc3O2)CC1` (as salt: hydrochloride) [Example 59, 1′-Carboxymethyl-4-(3,5-difluoro-4-trifluoroethoxyphenyl)spiro[2H-1-benzopyran-2,4′-piperidine]hydrochloride] showed a melting point of 244 to 251 °C. Compound `CCOC(=O)CN1CCC2(C=C(c3ccc(CC)cc3)c3ccccc3O2)CC1` [Example 65, Ethyl 4-(4-ethylphenyl)spiro[2H-1-benzopyran-2,4′-piperidine]-1′-acetate] returned a melting point of 119 to 121 °C.
